According to patent US20220331322A1, “COMPOUND FOR INHIBITING CELL DEATH” (Christian-Albrechts-Universität zu Kiel, priority 2019, published 2022):

Legend:
TNF-α-induced complex I = assay: Immunoprecipitation of TNF-α-induced complex I after TSZ, RIPK1 western blot; type: cell-based, human; conditions: U937, TSZ (100 ng/ml Fc-TNF-α + 1 μM SM164 + 25 μM zVAD), 1 mM primidone
Method: (§1) It was tested whether primidone interferes with binding of TNF-α to its corresponding receptor TNFR1. To induce cell death, human U937 cells were treated in the absence (vehicle) or presence of 1 mM primidone with 100 ng/ml Fc-tagged TNF-α+1 μM SMAC mimetic SM164+25 μM zVAD (TSZ) for different time periods, followed by immunopurification of the immunoprecipitated TNF-α-induced complex I using μMACS™ protein A/G microbeads, and western blot analysis using a specific RIPK1 antibody.

RIPK1 [1] = assay: RIPK1 phosphorylation (Ser166) western blot after TSZ; type: cell-based, human; conditions: U937, TSZ, 1 mM primidone
Method: as §1
It was then analyzed if the previously immunoprecipitated RIPK1 is activated by phosphorylation. For this purpose, the Western Blot shown before (FIG. 5) was “stripped” by chemically removing all reagents from the blot and re-developed with an antibody that only detects RIPK1 in its activate (i.e. phosphorylated) form.

Jurkat cells = assay: Anti-Fas antibody induced RIPK1-independent apoptosis; type: cell-based, human; conditions: 5 ng/ml anti-Fas antibody, 5 h, zVAD 25 μM, primidone 1 mM
Method: To this end, human T cells (Jurkat cells) were incubated for 5 h at 37° C. in the presence of (a) vehicle, (b) 5 ng/ml anti-Fas antibody, (c) 5 ng/ml anti-Fas antibody in combination with 25 μM of the pan-caspase inhibitor zVAD, and (d) 5 ng/ml anti-Fas antibody in combination with 1 mM primidone. The addition of the anti-Fas antibody induces apoptosis, a caspase-dependent form of regulated cell death that can be inhibited by the addition of the pan-caspase inhibitor zVAD.

[2] = Kidney ischemia-reperfusion injury (IRI) mouse model; type: in vivo; conditions: mice
Method: IRI is a clinically highly relevant model, since it is an unavoidable consequence after kidney transplantation and contributes to acute kidney injuries in various contexts (Müller et al., 2017). To test whether primidone could be used to suppress pathophysiological RIPK1-mediated cell death in renal IRI, mice were provided with a drinking solution containing either primidone at 2.875 mM or vehicle in the regular drinking water for five days prior to ischemia reperfusion surgery until the end of the reperfusion phase. Induction of murine kidney IRI was performed via a midline abdominal incision and bilateral renal pedicle clamping for 37 min using microaneurysm clamps (Aesculap Inc., Center Valley, Pa., USA). Throughout the surgical procedure, mice were kept under isoflurane narcosis and the body temperature was maintained at 36° C. to 37° C. by continuous monitoring using a temperature-controlled self-regulated heating system (Fine Science Tools, Heidelberg, Germany). After removal of the clamps, reperfusion of the kidneys was confirmed visually before the abdomen was closed in two layers using standard 6-0 sutures. After 48 h reperfusion, the mice were sacrificed, blood samples were taken by retrobulbar punction and organs were collected for analysis.
For histology, kidney samples freshly obtained were fixed in 4.5% neutral-buffered formaldehyde and embedded in paraffin. Sections were dewaxed, rehydrated, and subjected to Masson trichrome staining according to routine protocols. Sections were dehydrated and mounted using DePeX mounting media (Serva). Stainings were evaluated in a blinded manner using a Leica Axiovert microscope and Axio Vision SE64 Rel 4.9. software (Leica Microsystems, Wetzlar, Germany). For data presentation, mild sharpening, contrast enhancement and gamma adjustment was performed. To analyze cell death of the tissue sections, a TdT-mediated dUTP nick end labelling (TUNEL) assay was performed using a fluorescence-based detection kit according to the manufacturer's instructions (G3250, Promega). Briefly, tissue sections were dewaxed, rehydrated, fixed in 4% paraformaldehyde and permeabilized with Proteinase K for 10 min at RT. Following this, the sections were equilibrated with the provided buffer for 10 min and labeled with the TdT reaction mix for 60 min at 37° C. in a humidified dark environment. […] Fluorescence micrographs (data not shown) were acquired with a 20× and 40× objective magnifications using a standard fluorescein filter set to view the green fluorescence at 520 nm with a Leica Axiovert microscope and Axio Vision SE64 Rel 4.9 software. Quantification of TUNEL-positive cells was performed manually by two blinded observers by evaluating 8 randomly selected fields of view per slide.

RIPK1 [3] = target: T1, RIPK1 (Homo sapiens, UniProt Q13546); assay: KINOMEscan profiling kinase assay
T1 sequence (Q13546 1-671): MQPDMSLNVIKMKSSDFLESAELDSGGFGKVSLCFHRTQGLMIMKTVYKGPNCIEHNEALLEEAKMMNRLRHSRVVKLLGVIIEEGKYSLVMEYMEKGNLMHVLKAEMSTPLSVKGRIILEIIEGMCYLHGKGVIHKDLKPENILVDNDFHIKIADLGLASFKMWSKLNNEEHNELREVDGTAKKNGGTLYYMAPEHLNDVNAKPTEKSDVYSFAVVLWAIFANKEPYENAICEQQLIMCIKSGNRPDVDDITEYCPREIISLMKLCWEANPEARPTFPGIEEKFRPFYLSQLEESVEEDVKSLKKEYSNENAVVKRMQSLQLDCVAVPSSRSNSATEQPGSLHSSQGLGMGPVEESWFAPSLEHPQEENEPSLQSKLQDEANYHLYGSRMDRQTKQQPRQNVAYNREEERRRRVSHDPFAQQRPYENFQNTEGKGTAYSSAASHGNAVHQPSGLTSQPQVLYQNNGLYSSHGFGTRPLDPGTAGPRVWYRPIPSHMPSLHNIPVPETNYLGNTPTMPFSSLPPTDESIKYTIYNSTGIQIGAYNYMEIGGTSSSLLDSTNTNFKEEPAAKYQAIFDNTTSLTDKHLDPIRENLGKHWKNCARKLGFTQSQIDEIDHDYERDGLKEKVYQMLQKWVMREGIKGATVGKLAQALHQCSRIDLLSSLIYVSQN
Method: To clarify, a KINOMEscan™ profiling kinase assay was performed. […] Dissociation constants (Kd) for test compound-kinase interactions are calculated by measuring the amount of kinase captured on the solid support as a function of the test compound concentration.

[4] = primidone 2.875 mM in drinking water from 5 days before surgery, 37 min bilateral clamping, 48 h after reperfusion

CCC1(c2ccccc2)C(=O)NCNC1=O [primidone, 5-Ethyl-5-phenyl-1,3-diazinane-4,6-dione]
TNF-α-induced formation of complex I (RIPK1 binding to TNFR1) (TNF-α-induced complex I): not influenced | Activation (phosphorylation) of RIPK1 at residue Ser166 (RIPK1 [1]): completely blocked | Inhibition of anti-Fas antibody induced cell death (caspase-dependent, RIPK1-independent) (Jurkat cells): no inhibitory effect | Serum concentration of creatinine [2, 4]: significantly reduced | Serum concentration of urea [2, 4]: significantly reduced | TUNEL-positive cells (cells undergoing regulated cell death) in kidney sections ([2]; primidone 2.875 mM in drinking water, 48 h reperfusion): significant reduced number of cells undergoing regulated cell death | Masson trichrome histology of renal outer medulla (tissue integrity) ([2]; primidone 2.875 mM in drinking water, 48 h reperfusion, data not shown): better preservation of tissue integrity | Binding to RIPK1 kinase domain (prevention of kinase binding to immobilized ligand) (RIPK1 [3]): does not inhibit RIPK1 by binding directly to its kinase domain
